Measurements: patent US20120083522A1, “MODULATION OF INFLAMMATORY RESPONSES BY FACTOR XI” (Isis Pharmaceuitcals, inc., priority 2009, published 2012)
In the oligonucleotide strings, read from the 5' end, every base follows the letter of its sugar. An asterisk marks phosphorothioate; unmarked linkages are phosphodiester. Other units and linkages are bracketed, terminal groups are in braces. A string of capitals states the bases alone. e = 2'-O-(2-methoxyethyl) (MOE); [5mC] = 5-methylcytosine; d = 2'-deoxy (DNA)

Tests used:
[1] = test system: human Factor XI mRNA; assay: Antisense inhibition in HepG2 cells by microwalk gapmers, 8,000 nM, electroporation (Example 14); assay type: cell-based; settings: HepG2 cells, 8,000 nM
Protocol: These microwalk gapmers were tested in vitro. Cultured HepG2 cells at a density of 20,000 cells per well were transfected using electroporation with 8,000 nM antisense oligonucleotide. After a treatment period of approximately 24 hours, RNA was isolated from the cells and Factor XI mRNA levels were measured by quantitative real-time PCR. Factor XI mRNA levels were adjusted according to total RNA content, as measured by RIBOGREEN. Results are presented as percent inhibition of Factor XI, relative to untreated control cells.
The chimeric antisense oligonucleotides in Table 51 were designed as 5-10-5 MOE, 5-8-5 and 6-8-6 MOE gapmers. The first two listed gapmers in Table 51 are the original gapmers (ISIS 416850 and ISIS 416858) from which ISIS 445493-445543 were designed via microwalk, and are designated by an asterisk. The 5-10-5 gapmers are 20 nucleotides in length, wherein the central gap segment is comprised of ten 2′-deoxynucleotides and is flanked on both sides (in the 5′ and 3′ directions) by wings comprising five nucleotides each. The 5-8-5 gapmers are 18 nucleotides in length, wherein the central gap segment is comprised of eight 2′-deoxynucleotides and is flanked on both sides (in the 5′ and 3′ directions) by wings comprising five nucleotides each. The 6-8-6 gapmers are 20 nucleotides in length, wherein the central gap segment is comprised of eight 2′-deoxynucleotides and is flanked on both sides (in the 5′ and 3′ directions) by wings comprising six nucleotides each. For each of the motifs (5-10-5, 5-8-5 and 6-8-6), each nucleotide in the 5′ wing segment and each nucleotide in the 3′ wing segment has a 2′-MOE modification. The internucleoside linkages throughout each gapmer are phosphorothioate (P═S) linkages. All cytidine residues throughout each gapmer are 5-methylcytidines. “Human Target start site” indicates the 5′-most nucleotide to which the gapmer is targeted in the human sequence. “Human Target stop site” indicates the 3′-most nucleotide to which the gapmer is targeted in the human sequence. Each gapmer listed in Table 51 is targeted to SEQ ID NO: 1 (GENBANK Accession No. NM_000128.3). Each gapmer is Table 51 is also fully cross-reactive with the rhesus monkey Factor XI gene sequence, designated herein as SEQ ID NO: 274 (exons 1-15 GENBANK Accession No. NW—001118167.1). ‘Rhesus monkey start site’ indicates the 5′-most nucleotide to which the gapmer is targeted in the rhesus monkey sequence. ‘Rhesus monkey stop site’ indicates the 3′-most nucleotide to which the gapmer is targeted to the rhesus monkey sequence.

[2] = test system: human Factor XI mRNA; assay: Antisense inhibition in HepG2 cells by microwalk gapmers, 75 nM, lipofectin (Example 3); assay type: cell-based; settings: HepG2 cells, 75 nM, oligonucleotides targeted to nucleobases 1275 to 1318 of SEQ ID NO: 1
In short: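 HepG2 cells (10,000 per well) were transfected with 75 nM gapmer using lipofectin and treated for about 24 h. Factor XI mRNA was quantified by real-time PCR, normalized to RiboGreen total RNA and expressed as percent inhibition versus untreated controls.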

Substance: 416853 (antisense eT*eT*eG*eG*eT*dG*d[5mC]*dA*d[5mC]*dA*dG*dT*dT*dT*d[5mC]*eT*eG*eG*e[5mC]*eA) [compound 416853]
- Percent inhibition of human Factor XI mRNA levels [1]: 84%
- % inhibition of human Factor XI mRNA levels [2]: 91%

Substance: 416854 (antisense eA*eT*eT*eG*eG*dT*dG*d[5mC]*dA*d[5mC]*dA*dG*dT*dT*dT*e[5mC]*eT*eG*eG*e[5mC]) [compound 416854]
- Percent inhibition of human Factor XI mRNA levels [1]: 86%
- % inhibition of human Factor XI mRNA levels [2]: 90%

Substance: 416855 (antisense e[5mC]*eA*eT*eT*eG*dG*dT*dG*d[5mC]*dA*d[5mC]*dA*dG*dT*dT*eT*e[5mC]*eT*eG*eG) [compound 416855]
- Percent inhibition of human Factor XI mRNA levels [1]: 85%
- % inhibition of human Factor XI mRNA levels [2]: 87%

Substance: 416862 (antisense eA*eG*e[5mC]*eG*eG*dA*d[5mC]*dG*dG*d[5mC]*dA*dT*dT*dG*dG*eT*eG*e[5mC]*eA*e[5mC]) [compound 416862]
- Percent inhibition of human Factor XI mRNA levels [1]: 89%
- % inhibition of human Factor XI mRNA levels [2]: 90%

Substance: 445507 (antisense eG*eA*e[5mC]*eG*eG*e[5mC]*dA*dT*dT*dG*dG*dT*dG*d[5mC]*eA*e[5mC]*eA*eG*eT*eT) [compound 445507]
- Percent inhibition of human Factor XI mRNA levels [1]: 85%

Substance: 445508 (antisense eG*eG*eA*e[5mC]*eG*eG*d[5mC]*dA*dT*dT*dG*dG*dT*dG*e[5mC]*eA*e[5mC]*eA*eG*eT) [compound 445508]
- Percent inhibition of human Factor XI mRNA levels [1]: 81%

Substance: 445509 (antisense e[5mC]*eG*eG*eA*e[5mC]*eG*dG*d[5mC]*dA*dT*dT*dG*dG*dT*eG*e[5mC]*eA*e[5mC]*eA*eG) [compound 445509]
- Percent inhibition of human Factor XI mRNA levels [1]: 84%

Substance: 445510 (antisense eG*e[5mC]*eG*eG*eA*e[5mC]*dG*dG*d[5mC]*dA*dT*dT*dG*dG*eT*eG*e[5mC]*eA*e[5mC]*eA) [compound 445510]
- Percent inhibition of human Factor XI mRNA levels [1]: 88%

Substance: 445511 (antisense eA*eG*e[5mC]*eG*eG*eA*d[5mC]*dG*dG*d[5mC]*dA*dT*dT*dG*eG*eT*eG*e[5mC]*eA*e[5mC]) [compound 445511]
- Percent inhibition of human Factor XI mRNA levels [1]: 77%

Substance: 445512 (antisense e[5mC]*eA*eG*e[5mC]*eG*eG*dA*d[5mC]*dG*dG*d[5mC]*dA*dT*dT*eG*eG*eT*eG*e[5mC]*eA) [compound 445512]
- Percent inhibition of human Factor XI mRNA levels [1]: 79%

Substance: 445513 (antisense eG*e[5mC]*eA*eG*e[5mC]*eG*dG*dA*d[5mC]*dG*dG*d[5mC]*dA*dT*eT*eG*eG*eT*eG*e[5mC]) [compound 445513]
- Percent inhibition of human Factor XI mRNA levels [1]: 85%

Substance: 445514 (antisense eG*eG*e[5mC]*eA*eG*e[5mC]*dG*dG*dA*d[5mC]*dG*dG*d[5mC]*dA*eT*eT*eG*eG*eT*eG) [compound 445514]
- Percent inhibition of human Factor XI mRNA levels [1]: 81%

Substance: 445515 (antisense eT*eG*eG*e[5mC]*eA*eG*d[5mC]*dG*dG*dA*d[5mC]*dG*dG*d[5mC]*eA*eT*eT*eG*eG*eT) [compound 445515]
- Percent inhibition of human Factor XI mRNA levels [1]: 75%

Substance: 445516 (antisense e[5mC]*eT*eG*eG*e[5mC]*eA*dG*d[5mC]*dG*dG*dA*d[5mC]*dG*dG*e[5mC]*eA*eT*eT*eG*eG) [compound 445516]
- Percent inhibition of human Factor XI mRNA levels [1]: 79%

Substance: 445517 (antisense eA*e[5mC]*eT*eG*eG*e[5mC]*dA*dG*d[5mC]*dG*dG*dA*d[5mC]*dG*eG*e[5mC]*eA*eT*eT*eG) [compound 445517]
- Percent inhibition of human Factor XI mRNA levels [1]: 74%

Substance: 445518 (antisense eA*eG*eT*eT*eT*d[5mC]*dT*dG*dG*d[5mC]*dA*dG*dG*e[5mC]*e[5mC]*eT*e[5mC]*eG) [compound 445518]
- Percent inhibition of human Factor XI mRNA levels [1]: 75%

Substance: 445519 (antisense e[5mC]*eA*eG*eT*eT*dT*d[5mC]*dT*dG*dG*d[5mC]*dA*dG*eG*e[5mC]*e[5mC]*eT*e[5mC]) [compound 445519]
- Percent inhibition of human Factor XI mRNA levels [1]: 81%

Substance: 445520 (antisense eA*e[5mC]*eA*eG*eT*dT*dT*d[5mC]*dT*dG*dG*d[5mC]*dA*eG*eG*e[5mC]*e[5mC]*eT) [compound 445520]
- Percent inhibition of human Factor XI mRNA levels [1]: 82%

Substance: 445521 (antisense e[5mC]*eA*e[5mC]*eA*eG*dT*dT*dT*d[5mC]*dT*dG*dG*d[5mC]*eA*eG*eG*e[5mC]*e[5mC]) [compound 445521]
- Percent inhibition of human Factor XI mRNA levels [1]: 87%

Substance: 445523 (antisense eT*eG*e[5mC]*eA*e[5mC]*dA*dG*dT*dT*dT*d[5mC]*dT*dG*eG*e[5mC]*eA*eG*eG) [compound 445523]
- Percent inhibition of human Factor XI mRNA levels [1]: 73%

Substance: 445524 (antisense eG*eT*eG*e[5mC]*eA*d[5mC]*dA*dG*dT*dT*dT*d[5mC]*dT*eG*eG*e[5mC]*eA*eG) [compound 445524]
- Percent inhibition of human Factor XI mRNA levels [1]: 75%

Substance: 445525 (antisense eG*eG*eT*eG*e[5mC]*dA*d[5mC]*dA*dG*dT*dT*dT*d[5mC]*eT*eG*eG*e[5mC]*eA) [compound 445525]
- Percent inhibition of human Factor XI mRNA levels [1]: 85%

Substance: 445526 (antisense eT*eG*eG*eT*eG*d[5mC]*dA*d[5mC]*dA*dG*dT*dT*dT*e[5mC]*eT*eG*eG*e[5mC]) [compound 445526]
- Percent inhibition of human Factor XI mRNA levels [1]: 81%

Substance: 445527 (antisense eT*eT*eG*eG*eT*dG*d[5mC]*dA*d[5mC]*dA*dG*dT*dT*eT*e[5mC]*eT*eG*eG) [compound 445527]
- Percent inhibition of human Factor XI mRNA levels [1]: 70%

Substance: 445528 (antisense eA*eT*eT*eG*eG*dT*dG*d[5mC]*dA*d[5mC]*dA*dG*dT*eT*eT*e[5mC]*eT*eG) [compound 445528]
- Percent inhibition of human Factor XI mRNA levels [1]: 73%

Substance: 445529 (antisense e[5mC]*eA*eT*eT*eG*dG*dT*dG*d[5mC]*dA*d[5mC]*dA*dG*eT*eT*eT*e[5mC]*eT) [compound 445529]
- Percent inhibition of human Factor XI mRNA levels [1]: 85%

Substance: 445530 (antisense eG*e[5mC]*eA*eT*eT*dG*dG*dT*dG*d[5mC]*dA*d[5mC]*dA*eG*eT*eT*eT*e[5mC]) [compound 445530]
- Percent inhibition of human Factor XI mRNA levels [1]: 83%

Substance: 445533 (antisense eA*e[5mC]*eG*eG*e[5mC]*dA*dT*dT*dG*dG*dT*dG*d[5mC]*eA*e[5mC]*eA*eG*eT) [compound 445533]
- Percent inhibition of human Factor XI mRNA levels [1]: 87%

Substance: 445534 (antisense eG*eA*e[5mC]*eG*eG*d[5mC]*dA*dT*dT*dG*dG*dT*dG*e[5mC]*eA*e[5mC]*eA*eG) [compound 445534]
- Percent inhibition of human Factor XI mRNA levels [1]: 82%

Substance: 445535 (antisense eG*eG*eA*e[5mC]*eG*dG*d[5mC]*dA*dT*dT*dG*dG*dT*eG*e[5mC]*eA*e[5mC]*eA) [compound 445535]
- Percent inhibition of human Factor XI mRNA levels [1]: 83%

Substance: 445536 (antisense e[5mC]*eG*eG*eA*e[5mC]*dG*dG*d[5mC]*dA*dT*dT*dG*dG*eT*eG*e[5mC]*eA*e[5mC]) [compound 445536]
- Percent inhibition of human Factor XI mRNA levels [1]: 82%

Substance: 445537 (antisense eG*e[5mC]*eG*eG*eA*d[5mC]*dG*dG*d[5mC]*dA*dT*dT*dG*eG*eT*eG*e[5mC]*eA) [compound 445537]
- Percent inhibition of human Factor XI mRNA levels [1]: 78%

Substance: 445538 (antisense eA*eG*e[5mC]*eG*eG*dA*d[5mC]*dG*dG*d[5mC]*dA*dT*dT*eG*eG*eT*eG*e[5mC]) [compound 445538]
- Percent inhibition of human Factor XI mRNA levels [1]: 80%

Substance: 445539 (antisense e[5mC]*eA*eG*e[5mC]*eG*dG*dA*d[5mC]*dG*dG*d[5mC]*dA*dT*eT*eG*eG*eT*eG) [compound 445539]
- Percent inhibition of human Factor XI mRNA levels [1]: 79%

Substance: 445540 (antisense eG*e[5mC]*eA*eG*e[5mC]*dG*dG*dA*d[5mC]*dG*dG*d[5mC]*dA*eT*eT*eG*eG*eT) [compound 445540]
- Percent inhibition of human Factor XI mRNA levels [1]: 74%

Substance: 445541 (antisense eG*eG*e[5mC]*eA*eG*d[5mC]*dG*dG*dA*d[5mC]*dG*dG*d[5mC]*eA*eT*eT*eG*eG) [compound 445541]
- Percent inhibition of human Factor XI mRNA levels [1]: 80%

Substance: 445542 (antisense eT*eG*eG*e[5mC]*eA*dG*d[5mC]*dG*dG*dA*d[5mC]*dG*dG*e[5mC]*eA*eT*eT*eG) [compound 445542]
- Percent inhibition of human Factor XI mRNA levels [1]: 83%

Substance: 445543 (antisense e[5mC]*eT*eG*eG*e[5mC]*dA*dG*d[5mC]*dG*dG*dA*d[5mC]*dG*eG*e[5mC]*eA*eT*eT) [compound 445543]
- Percent inhibition of human Factor XI mRNA levels [1]: 74%
